# Target: T1, CDK8/CycC (Homo sapiens, UniProt P49336)
# T1 construct: purchased Invitrogen PV4402
# Assay: FRET based Lanthascreen binding competition assay for CDK8 inhibitory activity
# Details: CDK8 co-expressed with CycC; class symbols; read-out: IC50
# From the text: Biochemical Assay for CDK8 Inhibitory Activity FRET based Lanthascreen binding competition assay: A dye-labeled ATP competitive probe served as a FRET acceptor upon binding to CDK8 labeled with a strepavidin -Eu-chelate (via a biotinylated anti His antibody). The result was a fluorescence signal at 647 nm. In case this probe was competed by an inhibitor, such a signal cannot be generated any more. The CDK8 used for this assay was a protein co-expressed with CycC. The assay procedure for an assay in a 1536 well plate was performed according to the following: 2 μL CDK8/biotin-anti-His Ab/SA-Eu mix in Assay buffer were pipetted into the wells of a micro plate. 1 μL compound in 20 mM Hepes buffer/5% DMSO was added. The plate was shaken for 30 sec and incubated for 20 min at RT. 2 μL Alexa647-probe in assay buffer were added. The plate was shaken for 30 sec again and incubated for 60 min at RT in the dark. Then the plate was read out on a Perkin Elmer Envision (mode LANCE/TRF, excitation 340 nm emission 650 nm). […] The readouts were fitted to IC50 curves using Genedata Condoseo.
# T1 sequence (P49336 whole entry): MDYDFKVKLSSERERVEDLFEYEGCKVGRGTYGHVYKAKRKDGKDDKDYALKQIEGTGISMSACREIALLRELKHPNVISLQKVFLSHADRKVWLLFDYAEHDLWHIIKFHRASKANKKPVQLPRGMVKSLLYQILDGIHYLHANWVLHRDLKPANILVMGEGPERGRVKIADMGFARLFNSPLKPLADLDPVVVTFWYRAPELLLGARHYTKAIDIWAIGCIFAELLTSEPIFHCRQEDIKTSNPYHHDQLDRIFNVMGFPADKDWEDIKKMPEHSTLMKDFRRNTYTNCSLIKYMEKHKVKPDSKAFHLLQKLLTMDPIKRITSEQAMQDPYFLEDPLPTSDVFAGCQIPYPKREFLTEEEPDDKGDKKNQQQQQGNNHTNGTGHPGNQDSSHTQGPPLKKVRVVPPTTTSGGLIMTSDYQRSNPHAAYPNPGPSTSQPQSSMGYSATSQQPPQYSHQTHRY
# T1 sequence (P24863 whole entry partner): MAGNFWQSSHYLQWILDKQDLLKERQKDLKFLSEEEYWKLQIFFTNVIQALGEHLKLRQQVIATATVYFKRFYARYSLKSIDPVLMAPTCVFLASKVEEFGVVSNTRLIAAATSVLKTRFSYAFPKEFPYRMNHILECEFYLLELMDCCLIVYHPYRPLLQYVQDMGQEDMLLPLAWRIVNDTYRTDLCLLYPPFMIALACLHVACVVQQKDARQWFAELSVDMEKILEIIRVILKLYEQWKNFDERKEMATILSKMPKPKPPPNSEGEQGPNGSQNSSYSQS
row,IC50 [µM],Compound
1,0.1 to 1,"Cc1n[nH]c2ncc(C(=O)N3CCCC(c4ccccc4)C3)cc12 (centres unmarked) [compound 66, (3-Methyl-1H-pyrazolo[3,4-b]pyridin-5-yl)-(3-phenyl-piperidin-1-yl)-methanone]"
2,0.01 to 0.1,"Cc1n[nH]c2ncc(C(=O)N3CCCC(c4ccc(Cl)cc4)C3)cc12 (centres unmarked) [compound 67, [3-(4-Chloro-phenyl)-piperidin-1-yl]-(3-methyl-1H-pyrazolo[3,4-b]pyridin-5-yl)-methanone]"
3,< 0.01,"Cc1n[nH]c2ncc(C(=O)N3CCC(c4ccc(Cl)cc4)C3)cc12 (centres unmarked) [compound 68, [3-(4-Chloro-phenyl)-pyrrolidin-1-yl]-(3-methyl-1H-pyrazolo[3,4-b]pyridin-5-yl)-methanone]"
4,0.01 to 0.1,"Cc1n[nH]c2ncc(C(=O)N3CCCC3c3ccc(Cl)c(F)c3)cc12 (centres unmarked) [compound 69, [2-(4-Chloro-3-fluoro-phenyl)-pyrrolidin-1-yl]-(3-methyl-1H-pyrazolo[3,4-b]pyridin-5-yl)-methanone]"
5,0.01 to 0.1,"O=C(c1cnc2[nH]nc(C3CC3)c2c1)N1CCCC1c1ccc(Cl)cc1 (centres unmarked) [compound 70, [2-(4-Chloro-phenyl)-pyrrolidin-1-yl]-(3-cyclopropyl-1H-pyrazolo[3,4-b]pyridin-5-yl)-methanone]"
6,0.01 to 0.1,"O=C(c1cnc2[nH]nc(C(F)(F)F)c2c1)N1CCCC1c1ccc(Cl)cc1 (centres unmarked) [compound 71, [2-(4-Chloro-phenyl)-pyrrolidin-1-yl]-(3-trifluoromethyl-1H-pyrazolo[3,4-b]pyridin-5-yl)-methanone]"
7,0.1 to 1,"Nc1n[nH]c2ccc(C(=O)N3CCCCC3Cc3ccccc3)cc12 (centres unmarked) [compound 81, (3-Amino-1H-indazol-5-yl)-(2-benzyl-piperidin-1-yl)-methanone]"
8,0.01 to 0.1,"Nc1n[nH]c2ccc(C(=O)N3CCCCC3c3ccccc3)cc12 (centres unmarked) [compound 82, (3-Amino-1H-indazol-5-yl)-(2-phenyl-piperidin-1-yl)-methanone]"
9,0.01 to 0.1,"Nc1n[nH]c2ccc(C(=O)N3CCCC3c3ccccc3)cc12 (centres unmarked) [compound 83, (3-Amino-1H-indazol-5-yl)-(2-phenyl-pyrrolidin-1-yl)-methanone]"
10,0.1 to 1,"Nc1n[nH]c2ccc(C(=O)N3CCC(c4ccccc4)C3)cc12 (centres unmarked) [compound 84, (3-Amino-1H-indazol-5-yl)-(3-phenyl-pyrrolidin-1-yl)-methanone]"
11,0.1 to 1,"Nc1n[nH]c2ccc(C(=O)N3CC[C@H](c4ccccc4)C3)cc12 [compound 87, (3-Amino-1H-indazol-5-yl)-((R)-3-phenyl-pyrrolidin-1-yl)-methanone]"
12,0.1 to 1,"Nc1n[nH]c2ccc(C(=O)N3CC[C@@H](c4ccccc4)C3)cc12 [compound 88, (3-Amino-1H-indazol-5-yl)-((S)-3-phenyl-pyrrolidin-1-yl)-methanone]"
13,0.01 to 0.1,Nc1n[nH]c2ccc(C(=O)N3CCC[C@@H]3c3ccccc3)cc12 [compound 91]
14,0.01 to 0.1,"Nc1n[nH]c2ncc(C(=O)N3CCC[C@H]3c3ccc(Cl)cc3)cc12 [compound 96, (3-Amino-1H-pyrazolo[3,4-b]pyridin-5-yl)-[(S)-2-(4-chloro-phenyl)-pyrrolidin-1-yl]-methanone]"
15,0.01 to 0.1,"Nc1n[nH]c2ncc(C(=O)N3CCC[C@H]3c3ccc(Br)cc3)cc12 [compound 98, (3-Amino-1H-pyrazolo[3,4-b]pyridin-5-yl)-[(S)-2-(4-bromo-phenyl)-pyrrolidin-1-yl]-methanone]"
16,0.01 to 0.1,"Nc1n[nH]c2ccc(C(=O)N3CCC3c3ccc(Cl)cc3)cc12 (centres unmarked) [compound 104, (3-Amino-1H-indazol-5-yl)-[2-(4-chloro-phenyl)-azetidin-1-yl]-methanone]"
17,0.1 to 1,"Nc1n[nH]c2ccc(C(=O)N3CCCCCC3c3ccc(Cl)cc3)cc12 (centres unmarked) [compound 106, (3-Amino-1H-indazol-5-yl)-[2-(4-chloro-phenyl)-azepan-1-yl]-methanone]"
18,0.1 to 1,"Nc1n[nH]c2ccc(C(=O)N3CCCCCC3c3cccc(F)c3)cc12 (centres unmarked) [compound 107, (3-Amino-1H-indazol-5-yl)-[2-(3-fluoro-phenyl)-azepan-1-yl]-methanone]"
19,0.01 to 0.1,"Nc1n[nH]c2ccc(C(=O)N3CCCC3c3ccc(C(F)(F)F)cc3)cc12 (centres unmarked) [compound 112, (3-Amino-1H-indazol-5-yl)-[2-(4-trifluoromethyl-phenyl)-pyrrolidin-1-yl]-methanone]"
20,0.1 to 1,"CCOc1ccccc1C1CCCN1C(=O)c1ccc2[nH]nc(N)c2c1 (centres unmarked) [compound 113, (3-Amino-1H-indazol-5-yl)-[2-(2-ethoxy-phenyl)-pyrrolidin-1-yl]-methanone]"
21,0.1 to 1,"Nc1n[nH]c2ccc(C(=O)N3CCCC3c3ccccc3OCC(F)(F)F)cc12 (centres unmarked) [compound 114, (3-Amino-1H-indazol-5-yl)-{2-[2-(2,2,2-trifluoro-ethoxy)-phenyl]-pyrrolidin-1-yl}-methanone]"
22,0.1 to 1,Nc1n[nH]c2ccc(C(=O)N3CCCC(c4ccccc4)C3)cc12 (centres unmarked) [compound 115]
23,0.1 to 1,"Nc1n[nH]c2ccc(C(=O)N3CCCC(c4ccc(Cl)cc4)C3)cc12 (centres unmarked) [compound 116, (3-Amino-1H-indazol-5-yl)-[3-(4-chloro-phenyl)-piperidin-1-yl]-methanone]"
24,0.1 to 1,"Cc1n[nH]c2ncc(C(=O)N3CCC[C@H]3c3ccncc3)cc12 [compound 122, (3-Methyl-1H-pyrazolo[3,4-b]pyridin-5-yl)-((S)-2-pyridin-4-yl-pyrrolidin-1-yl)-methanone]"
25,0.1 to 1,"Cc1n[nH]c2ncc(C(=O)N3CC(O)CC3c3ccc(F)cc3)cc12 (centres unmarked) [compound 127, [2-(4-Fluoro-phenyl)-4-hydroxy-pyrrolidin-1-yl]-(3-methyl-1H-pyrazolo[3,4-b]pyridin-5-yl)-methanone]"
26,0.1 to 1,"Cc1n[nH]c2ncc(C(=O)N3CCC[C@H]3c3cccnc3)cc12 [compound 129, (3-Methyl-1H-pyrazolo[3,4-b]pyridin-5-yl)-((S)-2-pyridin-3-yl-pyrrolidin-1-yl)-methanone]"
27,0.1 to 1,"Nc1n[nH]c2ccc(C(=O)N3CCC[C@H]3c3ccccc3)cc12 [compound 131, (3-Amino-1H-indazol-5-yl)-((S)-2-phenyl-pyrrolidin-1-yl)-methanone]"
28,0.1 to 1,"Nc1n[nH]c2ccc(C(=O)N3CCC[C@@H]3c3ccccc3)cc12 [compound 132, (3-Amino-1H-indazol-5-yl)-((R)-2-phenyl-pyrrolidin-1-yl)-methanone]"

# Same assay, conditions: IC50 [μM], CDK8 co-expressed with CycC; class symbols
row,IC50 [µM],Compound
1,< 0.01,"Nc1n[nH]c2ccc(C(=O)N3CCCC3c3ccc(Br)cc3)cc12 (centres unmarked) [compound 74, (3-Amino-1H-indazol-5-yl)-[2-(4-bromo-phenyl)-pyrrolidin-1-yl]-methanone]"
2,< 0.01,"Nc1n[nH]c2ccc(C(=O)N3CCC[C@H]3c3ccc(Br)cc3)cc12 [compound 76, (3-Amino-1H-indazol-5-yl)-[(S)-2-(4-bromo-phenyl)-pyrrolidin-1-yl]-methanone]"
3,0.1 to 1,"Nc1n[nH]c2ccc(C(=O)N3CCC[C@@H]3c3ccc(Br)cc3)cc12 [compound 77, (3-Amino-1H-indazol-5-yl)-[(R)-2-(4-bromo-phenyl)-pyrrolidin-1-yl]-methanone]"
4,< 0.01,"Nc1n[nH]c2ccc(C(=O)N3CCC[C@H]3c3ccc(Cl)cc3)cc12 [compound 79, (3-Amino-1H-indazol-5-yl)-[(S)-2-(4-chloro-phenyl)-pyrrolidin-1-yl]-methanone]"
5,0.1 to 1,"Nc1n[nH]c2ccc(C(=O)N3CCC[C@@H]3c3ccc(Cl)cc3)cc12 [compound 80, (3-amino-1H-indazol-5-yl)-[(R)-2-(4-chloro-phenyl)-pyrrolidin-1-yl]-methanone]"
6,< 0.01,"Nc1n[nH]c2ccc(C(=O)N3CCCC3c3ccc(F)cc3)cc12 (centres unmarked) [compound 85, (3-Amino-1H-indazol-5-yl)-[2-(4-fluoro-phenyl)-pyrrolidin-1-yl]-methanone]"
7,0.01 to 0.1,"Nc1n[nH]c2ccc(C(=O)N3CCCC[C@H]3c3ccc(F)cc3)cc12 [compound 92, (3-Amino-1H-indazol-5-yl)-[(S)-2-(4-fluoro-phenyl)-piperidin-1-yl]-methanone]"
8,0.01 to 0.1,"Nc1n[nH]c2ccc(C(=O)N3CCC3c3ccc(F)cc3)cc12 (centres unmarked) [compound 105, (3-Amino-1H-indazol-5-yl)-[2-(4-fluoro-phenyl)-azetidin-1-yl]-methanone]"
9,0.01 to 0.1,"Nc1n[nH]c2ccc(C(=O)N3CCC(c4ccc(Cl)cc4)C3)cc12 (centres unmarked) [compound 117, (3-Amino-1H-indazol-5-yl)-[3-(4-chloro-phenyl)-pyrrolidin-1-yl]-methanone]"
10,0.1 to 1,"Nc1n[nH]c2ccc(C(=O)N3CCC[C@@H]3c3ccc(F)cc3)cc12 [compound 120, (3-Amino-1H-indazol-5-yl)-[(R)-2-(4-fluoro-phenyl)-pyrrolidin-1-yl]-methanone]"
11,0.01 to 0.1,"Nc1n[nH]c2ccc(C(=O)N3CCC[C@H]3c3ccc(F)cc3)cc12 [compound 124, (3-Amino-1H-indazol-5-yl)-[(S)-2-(4-fluoro-phenyl)-pyrrolidin-1-yl]-methanone]"
12,0.01 to 0.1,"Nc1n[nH]c2ccc(C(=O)N3CC[C@H]3c3ccc(F)cc3)cc12 [compound 134, (3-Amino-1H-indazol-5-yl)-[(S)-2-(4-fluoro-phenyl)-azetidin-1-yl]-methanone]"
13,0.1 to 1,"Nc1n[nH]c2ccc(C(=O)N3CC[C@@H]3c3ccc(F)cc3)cc12 [compound 135, (3-Amino-1H-indazol-5-yl)-[(R)-2-(4-fluoro-phenyl)-azetidin-1-yl]-methanone]"

# From patent US9862717B2 (Merck Patent GmbH, priority 2014, dated 2018)
